One compound from the NIST ThermoML archive (doi:10.1021/je200640q) can be followed below.

Data set [1] can be described thus: Molar enthalpy of transition or fusion. Particulars: Crystal; DSC.
The conditions of data set [2]: Crystal; DTA.

Numbers after ± are expanded uncertainties.

`CC(C)(c1ccc(O)cc1)c1ccc(O)cc1` [2,2-(4',4''-dihydroxy)diphenylpropane]: the “Molar enthalpy of transition or fusion” value in data set [1] came out at 7.34 ± 0.215 kcal/mol. Moreover, the Normal melting temperature in data set [2] was found to be 156.50 ± 0.5 °C.
